From US9694016B2 (Novartis AG, priority 2013, dated 2017)
Read-outs that look alike come from different tables or passages of the source.

Biological target: b-Raf (V600E) (Homo sapiens (Human), UniProt P15056, V600E)
Conditions: read-out: b-Raf IC-50
[1] = AlphaScreen, 60 min pre-incubation, 3 hours reaction
[2] = AlphaScreen, 60 min pre-incubation, reaction 3 hours at room temperature
[3] = Table 2, AlphaScreen, 3 hours reaction

Sequence of b-Raf (V600E) (P15056 whole entry V600E): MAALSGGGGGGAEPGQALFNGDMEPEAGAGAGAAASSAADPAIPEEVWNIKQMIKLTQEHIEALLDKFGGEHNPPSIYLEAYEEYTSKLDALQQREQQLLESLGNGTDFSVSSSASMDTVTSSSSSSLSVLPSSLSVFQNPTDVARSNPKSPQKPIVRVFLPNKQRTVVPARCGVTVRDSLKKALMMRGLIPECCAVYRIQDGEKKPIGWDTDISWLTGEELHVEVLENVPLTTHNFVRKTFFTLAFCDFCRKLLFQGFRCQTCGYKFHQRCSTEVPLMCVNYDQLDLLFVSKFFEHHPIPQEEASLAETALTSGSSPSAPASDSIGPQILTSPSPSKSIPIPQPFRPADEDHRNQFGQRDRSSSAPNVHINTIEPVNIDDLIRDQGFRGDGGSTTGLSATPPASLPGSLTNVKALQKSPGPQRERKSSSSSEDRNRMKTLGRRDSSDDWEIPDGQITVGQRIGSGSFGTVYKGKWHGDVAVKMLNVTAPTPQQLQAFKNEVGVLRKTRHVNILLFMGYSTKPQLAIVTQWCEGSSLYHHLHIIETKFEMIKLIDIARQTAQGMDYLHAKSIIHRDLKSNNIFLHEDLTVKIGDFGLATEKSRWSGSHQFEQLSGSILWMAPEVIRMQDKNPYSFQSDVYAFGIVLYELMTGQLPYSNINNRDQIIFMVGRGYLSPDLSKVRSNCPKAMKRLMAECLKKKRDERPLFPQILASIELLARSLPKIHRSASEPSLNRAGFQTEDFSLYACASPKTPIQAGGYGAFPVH
Source text: Sf9 cells co-expressing both proteins were lysed and subjected to immobilized nickel chromatography and eluted with Imidazole. A second column (StrepII binding column) was used and eluted with desthiobiotin. Protein Tags were removed using Prescission enzyme and the protein was further purified using a flowthrough step to remove tags.
Full length MEK1 with an inactivating K97R ATP binding site mutation is utilized as a RAF substrate. The MEK1 cDNA was subcloned with an N-terminal (his)6 tag into a vector for E. Coli expression. The MEK1 substrate was purified from E. Coli lysate by nickel affinity chromatography followed by anion exchange. The final MEK1 preparation was biotinylated (Pierce EZ-Link Sulfo-NHS-LC-Biotin) and concentrated.
Assay buffer: 50 mM Tris, pH 7.5, 15 mM MgCl2, 0.01% Bovine Serum Albumin (BSA), 1 mM dithiothreitol (DTT) Stop buffer: 60 mM ethylenediaminetetraacetic acid (EDTA), 0.01% Tween® 20
biotinylated Mek, kinase dead
384 well low volume assay plates (White Greiner® plates)
biotinylated Mek, Kinase dead approximately 10 nM
Pre-incubation time with compounds 60 minutes at room temperature
Reaction time 1 or 3 hours at room temperature
The plate was incubated for 60 minutes at room temperature.
The additions were carried out under dark conditions to protect the detection beads from light. A lid was placed on top of the plate and incubated for 1 hour at room temperature, then the luminescence was read on a PerkinElmer Envision instrument.

Compound: Cc1ccc(NC(=O)c2ccnc(C3(C#N)CC3)c2)cc1-c1cc(N2CCOCC2)c(=O)n(C)n1 [Example 659, 2-(1-cyanocyclopropyl)-N-(4-methyl-3-(1-methyl-5-morpholino-6-oxo-1,6-dihydropyridazin-3-yl)phenyl)isonicotinamide]
- IC50 [1]: 0.7 nM

Compound: Cc1ccc(NC(=O)c2cc(CN(C)C)cc(C(F)(F)F)c2)cc1-c1cc(N2CCOCC2)n(C)c(=O)c1 [Example 497, 3-((dimethylamino)methyl)-N-(4-methyl-3-(1-methyl-6-morpholino-2-oxo-1,2-dihydropyridin-4-yl)phenyl)-5-(trifluoromethyl)benzamide]
- IC50 [1]: 2.8 nM

Compound: Cc1ccc(NC(=O)c2ccnc(C(C)(F)F)c2)cc1-c1cc(N2CCOC[C@@H]2C)n(C)c(=O)c1 [Example 525, (S)-2-(1,1-difluoroethyl)-N-(4-methyl-3-(1-methyl-6-(3-methylmorpholino)-2-oxo-1,2-dihydropyridin-4-yl)phenyl)isonicotinamide]
- IC50 [1]: 3.8 nM

Compound: Cc1ccc(NC(=O)c2ccnc(C(C)(C)F)c2)cc1-c1cnc(OCCO)c(N2CCOCC2)c1 [Example 997, 2-(2-fluoropropan-2-yl)-N-(3-(6-(2-hydroxyethoxy)-5-morpholinopyridin-3-yl)-4-methylphenyl)isonicotinamide]
- IC50 [2]: 2 nM

Compound: Cc1ncc(NC(=O)c2cccc(C(F)F)c2)cc1-c1cc(NCCO)nc(N2CCOCC2)c1 [Example 1038, 3-(difluoromethyl)-N-(2′-((2-hydroxyethyl)amino)-2-methyl-6′-morpholino-[3,4′-bipyridin]-5-yl)benzamide]
- IC50 [2]: 2.86 nM

Compound: Cc1ccc(NC(=O)c2ccnc(C(C)(F)F)c2)cc1-c1cc(N2CCOCC2)c(=O)n(CCC#N)c1 [Example 334, N-(3-(1-(2-cyanoethyl)-5-morpholino-6-oxo-1,6-dihydropyridin-3-yl)-4-methylphenyl)-2-(1,1-difluoroethyl)isonicotinamide]
- IC50 [3]: 2.3 nM

Compound: Cc1ccc(NC(=O)c2ccnc(C(F)(F)F)c2)cc1-c1cc(N2CCOCC2)nc(NCCO)c1F [Example 1006, N-(3-(3-fluoro-2-((2-hydroxyethyl)amino)-6-morpholinopyridin-4-yl)-4-methylphenyl)-2-(trifluoromethyl)isonicotinamide]
- IC50 [2]: 3.97 nM

Compound: Cc1ccc(NC(=O)c2cccc(C(F)(F)F)c2)cc1-c1nc(N2CCOCC2)c2ncsc2n1 [Example 839, N-(4-methyl-3-(7-morpholinothiazolo[5,4-d]pyrimidin-5-yl)phenyl)-3-(trifluoromethyl)benzamide]
- IC50 [1]: 0.9 nM

Compound: CCOc1ncc(-c2cc(NC(=O)c3cnnc(C(F)(F)F)c3)cnc2C)cc1N1CCOC[C@H]1C [Example 285]
- IC50 [3]: 200 nM

Compound: Cc1ccc(NC(=O)c2cccc(C(F)F)c2)cc1-c1cc(NCCO)nc(N2CCOCC2)c1 [Example 1036, 3-(difluoromethyl)-N-(3-(2-((2-hydroxyethyl)amino)-6-morpholinopyridin-4-yl)-4-methylphenyl)benzamide]
- IC50 [2]: 0.54 nM

Compound: Cc1ccc(NC(=O)c2cnnc(C(F)(F)F)c2)cc1-c1cc(N2CCOCC2)nc(NCCO)c1F [Example 1007, N-(3-(3-fluoro-2-((2-hydroxyethyl)amino)-6-morpholinopyridin-4-yl)-4-methylphenyl)-6-(trifluoromethyl)pyridazine-4-carboxamide]
- IC50 [2]: 5.38 nM

Compound: Cc1ncc(NC(=O)c2ccnc(C(C)(F)F)c2)cc1-c1cnc(OC(C)C)c(N2CCOCC2)c1 [Example 952, 2-(1,1-difluoroethyl)-N-(6′-isopropoxy-2-methyl-5′-morpholino-[3,3′-bipyridin]-5-yl)isonicotinamide]
- IC50 [2]: 1.98 nM

Compound: COc1ncc(-c2cc(NC(=O)c3ccnc(S(C)(=O)=O)c3)ccc2C)nc1N1CCOCC1 [Example 546, N-(3-(5-methoxy-6-morpholinopyrazin-2-yl)-4-methylphenyl)-2-(methylsulfonyl)isonicotinamide]
- IC50 [1]: 5 nM

Compound: Cc1ncc(NC(=O)c2cccc(C(F)F)c2)cc1-c1cc(N2CCOCC2)n2nccc2n1 [Example 804, 3-(difluoromethyl)-N-(6-methyl-5-(7-morpholinopyrazolo[1,5-a]pyrimidin-5-yl)pyridin-3-yl)benzamide]
- IC50 [1]: 0.8 nM

Compound: Cc1ccc(NC(=O)c2ccnc(C(C)(C)F)c2)cc1-c1cc(N2CCOC[C@@H]2C)c(=O)n(C)n1 [Example 662, (S)-2-(2-fluoropropan-2-yl)-N-(4-methyl-3-(1-methyl-5-(3-methylmorpholino)-6-oxo-1,6-dihydropyridazin-3-yl)phenyl)isonicotinamide]
- IC50 [1]: 3.9 nM

Compound: Cn1cc(-c2cc(NC(=O)c3ccnc(C(F)(F)F)c3)ccc2F)cc(N2CCOCC2)c1=O [Example 418]
- IC50 [3]: 3.5 nM

Compound: Cc1ncc(NC(=O)c2cccc(C(F)(F)F)c2)cc1-c1cc(N2CCOCC2)nc(C(C)(C)O)n1 [Example 788, N-(5-(2-(2-hydroxypropan-2-yl)-6-morpholinopyrimidin-4-yl)-6-methylpyridin-3-yl)-3-(trifluoromethyl)benzamide]
- IC50 [1]: 200 nM

Compound: Cc1ccc(NC(=O)c2cccc(C(C)(C)S(C)(=O)=O)c2)cc1-c1cc(N2CCOCC2)n(C)c(=O)c1 [Example 494, N-(4-methyl-3-(1-methyl-6-morpholino-2-oxo-1,2-dihydropyridin-4-yl)phenyl)-3-(2-(methylsulfonyl)propan-2-yl)benzamide]
- IC50 [1]: 16.8 nM

Compound: CCOc1cc(-c2cc(NC(=O)c3ccnc(C(C)(F)F)c3)cnc2C)cc(N2CCOCC2)n1 [Example 1143, 2-(1,1-difluoroethyl)-N-(2′-ethoxy-2-methyl-6′-morpholino-[3,4′-bipyridin]-5-yl)isonicotinamide]
- IC50 [2]: 1.81 nM

Compound: CCOc1ncc(-c2cc(NC(=O)c3cccc(-c4nnco4)c3)ccc2C)cc1N1CCOCC1 [Example 230, N-(3-(6-ethoxy-5-morpholinopyridin-3-yl)-4-methylphenyl)-3-(1,3,4-oxadiazol-2-yl)benzamide]
- IC50 [3]: 1.4 nM

Compound: Cc1ncc(NC(=O)c2cccc(C(F)(F)F)c2)cc1-c1cnc(OC2CCOCC2)c(N2CCOCC2=O)c1 [Example 309, N-(2-methyl-5′-(3-oxomorpholino)-6′-((tetrahydro-2H-pyran-4-yl)oxy)-[3,3′-bipyridin]-5-yl)-3-(trifluoromethyl)benzamide]
- IC50 [3]: 9.2 nM

Compound: CCNc1nc(-c2cc(NC(=O)c3ccnc(C(C)(C)O)c3)ccc2C)cc(N2CCOCC2)n1 [Example 705, N-(3-(2-(ethylamino)-6-morpholinopyrimidin-4-yl)-4-methylphenyl)-2-(2-hydroxypropan-2-yl)isonicotinamide]
- IC50 [1]: 4.1 nM

Compound: Cc1ncc(NC(=O)c2ccnc(C(C)(C)C#N)c2)cc1-c1cc(N2CCOCC2)nc(N2C(=O)OC[C@@H]2C)n1 [Example 784, (S)-2-(2-cyanopropan-2-yl)-N-(6-methyl-5-(2-(4-methyl-2-oxooxazolidin-3-yl)-6-morpholinopyrimidin-4-yl)pyridin-3-yl)isonicotinamide]
- IC50 [1]: 200 nM

Compound: CCOc1ncc(-c2cc(NC(=O)c3cccc(C(F)F)c3)ccc2C)cc1N1CCOCC1 [Example 231, 3-(difluoromethyl)-N-(3-(6-ethoxy-5-morpholinopyridin-3-yl)-4-methylphenyl)benzamide]
- IC50 [3]: 0.4 nM

Compound: Cc1ccc(NC(=O)c2cc(CN(C)C)cc(C(F)(F)F)c2)cc1-c1cc(N2CCOCC2)c(=O)n(C)c1 [Example 173, 3-((dimethylamino)methyl)-N-(4-methyl-3-(1-methyl-5-morpholino-6-oxo-1,6-dihydropyridin-3-yl)phenyl)-5-(trifluoromethyl)benzamide]
- IC50: 9.2 nM

Compound: CCNc1nc(-c2cc(NC(=O)c3cc(C(F)(F)F)c(=O)n(CC)c3)ccc2C)cc(N2CCOCC2)n1 [Example 703, 1-ethyl-N-(3-(2-(ethylamino)-6-morpholinopyrimidin-4-yl)-4-methylphenyl)-6-oxo-5-(trifluoromethyl)-1,6-dihydropyridine-3-carboxamide]
- IC50 [1]: 1.3 nM

Compound: Cc1ncc(NC(=O)c2cccc(S(C)(=O)=O)c2)cc1-c1cnc(OC2CCOCC2)c(N2CCOCC2)c1 [Example 937, N-(2-methyl-5′-morpholino-6′-((tetrahydro-2H-pyran-4-yl)oxy)-[3,3′-bipyridin]-5-yl)-3-(methylsulfonyl)benzamide]
- IC50 [2]: 4.53 nM

Compound: Cc1ccc(NC(=O)c2ccnc(C(C)(C)F)c2)cc1-c1cc(N2CCOCC2)c(=O)n(C)c1 [Example 355, 2-(2-fluoropropan-2-yl)-N-(4-methyl-3-(1-methyl-5-morpholino-6-oxo-1,6-dihydropyridin-3-yl)phenyl)isonicotinamide]
- IC50 [3]: 2.5 nM

Compound: CCOc1nnc(-c2cc(NC(=O)c3ccc(CN(C)C)c(C(F)(F)F)c3)ccc2C)cc1N1CCOCC1 [Example 576, 4-((dimethylamino)methyl)-N-(3-(6-ethoxy-5-morpholinopyridazin-3-yl)-4-methylphenyl)-3-(trifluoromethyl)benzamide]
- IC50 [1]: 3.5 nM

Compound: Cc1ccc(NC(=O)c2ccnc(C(C)(C)C#N)c2)cc1-c1cc(N2CCOCC2)nc(NCCO)n1 [Example 734, 2-(2-cyanopropan-2-yl)-N-(3-(2-((2-hydroxyethyl)amino)-6-morpholinopyrimidin-4-yl)-4-methylphenyl)isonicotinamide]
- IC50 [1]: 6.9 nM

Compound: Cc1cc(C(=O)Nc2ccc(C)c(-c3cc(N4CCOCC4)c(=O)n(C)c3)c2)n(C)n1 [Example 381, 1,3-dimethyl-N-(4-methyl-3-(1-methyl-5-morpholino-6-oxo-1,6-dihydropyridin-3-yl)phenyl)-1H-pyrazole-5-carboxamide]
- IC50 [3]: 100 nM

Compound: Cc1ncc(NC(=O)c2ccnc(C(C)(F)F)c2)cc1-c1cc(N2CCOCC2)c(=O)n(C)n1 [Example 678, 2-(1,1-difluoroethyl)-N-(6-methyl-5-(1-methyl-5-morpholino-6-oxo-1,6-dihydropyridazin-3-yl)pyridin-3-yl)isonicotinamide]
- IC50 [1]: 6.4 nM

Compound: CCOc1nnc(-c2cc(NC(=O)c3ccnc(S(C)(=O)=O)c3)cnc2C)cc1N1CCOCC1 [Example 615, N-(5-(6-ethoxy-5-morpholinopyridazin-3-yl)-6-methylpyridin-3-yl)-2-(methylsulfonyl)isonicotinamide]
- IC50 [1]: 12.3 nM
